{
  "source": "patent US7994202B2",
  "about": "“Bicyclic nitrogen-containing heterocyclic compounds” (Asahi Kasei Pharma Corporation, priority 2008, dated 2011)",
  "tested_on": "female SD rat",
  "assay": "Micturition interval prolongation in an anesthetized rat - II (0.2% acetic acid infusion to bladder)",
  "format": "in vivo",
  "conditions": "urethane-anesthetized female SD rat, 0.2% acetic acid bladder infusion, administered to the left femoral vein",
  "method": "Activity of prolonging micturition interval in an anesthetized rat was determined with reference to the method established by Maggi, et al. (Eur. J. Pharmacol. 145, p. 105-112 (1988)). Specifically, a female SD rat was anesthetized with urethane and fixed in a supine position, and a catheter was inserted through an external urethral opening. Using a three-way stopcock, it was connected to a pressure transducer and a syringe pump. While infusing physiological saline including 0.2% acetic acid to the bladder at constant rate, cystometrogram was recorded. After confirming stabilized micturition interval, micturition threshold pressure and maximal voiding pressure, a solvent or the compound to be tested was administered to the left femoral vein and an activity of prolonging micturition interval was determined as an efficacy of the drug compound. Each group included five animals.",
  "data": [
    {"smiles": "O=C(O)c1csc(-n2nc(-c3ccccc3)c3ccccc32)n1", "note": "[Exp.2, 2-(3-Phenyl-1H-indazol-1-yl)thiazole-4-carboxylic acid]", "values": [
      {"measurement": "Voiding interval-extending action", "result": 30.0, "unit": "%"}
    ]}
  ]
}
